# Cy5.5 = Cy5.5 dye
# How the values were obtained:
# [1] = set-up: species or system Sprague-Dawley rats; conditions: rat, in vivo
# Procedure: The fate of SAP upon application to the eye was investigated. Specifically, the ability of SAP to reach the retina via application of eye drop solutions of the SAP to the cornea was evaluated using an SAP-Cy5 conjugate.
# Adult white Sprague-Dawley rats weighing between 200 and 240 grams were housed in a 12 hour light/12 hour night cycle with free access to food and water. The animals were randomly divided into experimental or control groups.
# Conjugates of Cy5.5 and RADA (SEQ ID NO: 57), Cy5.5 and RADARADA ((RADA)2; SEQ ID NO: 88), and Cy5.5 and H2N(RADA)4CONH2 (SEQ ID NO: 433) were prepared according to a modified protocol of Chen X., et al., Cancer Res., 64(21): 8009-8014 (2004).
# In one experiment, RADA-4-Cy5.5 conjugate was prepared as follows: 0.5 mg of H2N(RADA)4CONH2 was dissolved in 50 μL of DMSO to a final concentration of […] in DMSO. The solution was mixed with 20 μL of diethyl isopropyl amine (DIPEA) to adjust the pH to 12. A solution of Cy5.5 dyes (1.0 mg in 20 μL of DMSO) was added at room temperature for conjugation and the mixture was periodically vortexed over 2 hours.
# In some experiments, the RADA-4 solution was prepared with water as the solvent, for example: to a solution of RADA-4 (1.8 mg of H2N(RADA)4CONH2 (SEQ ID NO: 433) in 500 μL of Milli-Q water), 1 μL of Diisopropyl ethylene amine (DIPEA) was added to obtain pH 8 from 4. To prepare a working Cy5.5 stock, 165 μL of Milli-Q water was added to 165 μL Cy5.5 to make a 6.59×10^−7 M solution. The final conjugate was prepared by mixing equal volumes (165 μL) of the buffered (pH 8) (RADA)4 solution and Cy5.5 solution at room temperature for 2 hours.
# Eye drops were applied to both eyes of rats. The experimental group of rats were administered 2 μL of Cy5.5-(RADA)4 conjugate via drops, while control rats were administered Cy5.5 only via drops. The experiments were repeated using Cy5.5 conjugated to RADA (Cy5.5(RADA)COOH; SEQ ID NO: 442) and Cy5.5 conjugated to (RADA)2 (Cy5.5(RADA)2COOH; SEQ ID NO: 444).
# The rats were sacrificed 24 hours or 3 days post treatment. The eye balls of the rats were harvested and were then fixed in 4% paraformaldehyde (PFA) overnight. Excessive PFA was washed with 0.1M phosphate buffer (0.1MPB) 3 times (30 minutes each). The eyeballs were then dehydrated with 30% sucrose solution (30 g sucrose in 100 mL of 0.1 MPB) overnight, while replenishing the sucrose solution once for at least 6 hours. As necessary, the shape of the eyeballs was reformed with O.C.T. (Optimal Cutting Temperature compound; TISSUE-TEK® O.C.T.; CA) by injecting through the optic nerve. Each eye was embedded entirely in a mount with O.C.T. in liquid nitrogen to form frozen blocks. Blocks containing the eye samples were then sectioned at 20 microns and were placed on charged slides and allowed to dry. The slides were then rinsed to remove excess OCT and cover-slipped. The fate of the Cy5.5-RADA conjugate was investigated by tracing the color of the Cy5.5 in the eye. Visualization was performed with light microscopy and photographs were taken with a SPOT camera affixed to the Zeiss microscope.
# [2] = test system: activated retinal microglial cells; experiment: Lipopolysaccharide ocular inflammation model, 1 μl LPS alone or with SAP intravitreally, sacrifice after 24 hours (Example 2); type: in vivo, Sprague-Dawley rats
# Procedure: Adult white Sprague-Dawley rats with a weight of between 200 and 240 grams were housed in a 12 hours light/12 hours night cycle with free access to food and water. The animals were randomly divided into a study or control groups.
# Intravitreal injections, immunohistochemical staining and assessment of intraocular inflammation were generally performed as described in Example 1.
# 1 μl sterile lipopolysaccharide (LPS; from S. typhimurium; catalog no. L-7261; Sigma-Aldrich, St. Louis, Mo.) either alone or in combination with (RADA)2 (SEQ ID NO: 88) solutions at 0.1%, 1.0%, and 10.0% were administered via direct intravitreal injections. The animals were sacrificed 24 hours after treatment. The experiments were repeated at least 5 times.
# In some experiments, different SAP, including S2 (H2N(EARA)COOH; SEQ ID NO: 92), S3 (H2N(RARA)CONH2; SEQ ID NO: 413), and S5 (H2N(EARA)2CONH2; SEQ ID NO: 414), were evaluated as described above for (RADA)2 (SEQ ID NO: 88).
# Finally, a conjugate of an EARA based SAP and a tissue-specific motif (MSCRAMM; SEQ ID NO: 141) was also evaluated using this lipopolysaccharide ocular inflammation model. Experiments were performed as described above for (RADA)2 (SEQ ID NO: 88). Briefly, 1 μl sterile lipopolysaccharide (LPS; from S. typhimurium; catalog no. L-7261; Sigma-Aldrich, St. Louis, Mo.) either alone or in combination with MSCRAMM(EARA)4 (SEQ ID NO: 432) solutions at 1.0%, and 3.0% were administered via direct intravitreal injections. The animals were sacrificed 24 hours after treatment. The experiments were repeated three times for each SAP conjugate concentration (that is, n=3 for 1%; n=3 for 3%).
# [3] = test system: activated retinal microglial cells; experiment: Lipopolysaccharide ocular inflammation model, intravitreal co-injection, quantification of activated retinal microglial cells (Example 1); type: in vivo, Sprague-Dawley rats; set-up: TOTAL AREA WEIGHT (total retinal area weight-averaged density; amount of inflammation) / JEB #: unit not given here; conditions: for JEB # / TOTAL AREA WEIGHT (total retinal area weight-averaged density; amount of inflammation): 0.5% RADA + LPS intravitreal
# Procedure: The anti-inflammatory effect of SAP was examined using the lipopolysaccharide ocular inflammation model, and measurement of microglial cell activation was assessed as an indicator of inflammation. Morphological changes in macrophage cells, such as microglial cells, can be used as a marker of the presence and extent of inflammation. Methods for identifying and scoring variations in microglial cell morphology in response to inflammatory stimuli are described in the art (see, for example, Jonas, et al., PLoS ONE 7(2): e30763 (2012)).
# Adult white Sprague-Dawley rats weighing between 200 and 240 grams were housed in a 12 hour light/12 hour night cycle with free access to food and water. The animals were randomly divided into study or control groups.
# Animals were anesthetized by an intraperitoneal injection of xylazine 2% (5 mg/kg body weight) and ketamine 10% (100 mg/kg body weight). Topical anesthesia was additionally provided by repeated administration of proparacaine (0.5%) drops onto the cornea. A thorough disinfection of the ocular surface, the lid margins and the periocular skin was carried out with iodine 5% solution.
# Using a glass pipette pulled to the size of a 30 gauge needle and attached to a syringe, 2 μl of sterile, pyrogen-free saline containing lipopolysaccharides from Salmonella typhimurium (catalog no. L-7261; Sigma-Aldrich, St. Louis, Mo.) was intravitreally injected.
# For the primary experiment, the study included 40 Sprague-Dawley rats. All intravitreal injection volumes were of 2 μl, to reduce the effects of increased ocular pressure. All intravitreal injections of lipopolysaccharides (LPS) volumes were 4 μg at a concentration of 2 μg/μL.
# The control groups (n=20) received either an intravitreal saline injection (n=5), lipopolysaccharide (LPS) alone ([…]), or no injection as a normal control group (n=5). Animals in the SAP study group (n=15) also received the self-assembling peptide (amino acid sequence RADARADARADARADA; “RADA-16”) in concentrations of 0.5% of SAP/2 μL.
# At one, three and seven days after the injections, the animals were sacrificed, and the globes were immunohistochemically stained and histomorphometrically examined. The contralateral eye from the LPS group was also examined.
# The eyes were embedded with Optimal Cutting Temperature compound (Tissue-Tek® O.C.T., Ted Pella, Inc. Redding, Calif.) after the lenses were removed. The globes were sectioned and placed on subbed slides. After being washed in 0.01M phosphate buffered saline for 10 minutes, the sections (15 μm) were immersed in a blocking solution containing 0.3% triton, 2.5% bovine serum albumin (BSA; Proliant Co, Ankeny, Iowa, USA) and 2% goat serum for 30 minutes. The sections were incubated in a primary antibody diluted solution overnight at 4° C., containing rabbit anti-IBA1 (Ionized calcium Binding Adaptor molecule 1; 1:500; Wako Pure Chemical Industries, Ltd. Osaka, Japan) and mouse anti rat CD 68 (ED1) (1:1000; AbD Serotech, D-40470 Dusseldorf, Germany). The sections were then washed in 0.01M phosphate buffered saline (10 minutes, 3 times), and incubated with secondary antibody diluted solution at room temperature for 2 hours (Goat-anti-rabbit 568, Goat-anti-mouse Alexa 488, (Invitrogen, Carlsbad, Calif., 1:400)). The slides were then washed in 0.01M phosphate buffered saline (10 minutes, 3 times) and cover slipped with fluorescein mounting medium with DAPI (4′,6-diamidin-2′-phenylindol-dihydrochloride; Dako Ltd, Glostrup, Denmark). All images were taken under a 20× objective with a Carl Zeiss Flour microscope (Carl Zeiss Inc. Oberkochen, Germany) fitted with a spot camera. All illumination levels were fixed during image acquisition.
# The amount of intraocular inflammation was assessed by quantification of immunohistochemically labeled activated retinal microglial cells, which function as the immune mediators of the central nervous system. […]
# [4] = 1.0% and 3.0% solutions with LPS, 24 hours
substance,measurement,setting,value
Cy5.5(RADA)COOH ({Cy5.5}-RADA-OH) [Cy5.5 conjugated to RADA],localization,[1],localize to the retina
MSCRAMM(EARA)4 (MSCRAMMEARAEARAEARAEARA) [conjugate of an EARA based SAP and a tissue-specific motif (MSCRAMM],ED1 reactivity,[2]; [4],no evidence of ED1 reactivity
same,activation of microglia (JEB score),[2]; [4],≤ 4
same,inflammation in treated animals,[2]; [4],no inflammation
same,signs of retinal inflammation compared to control (LPS only),[2]; [4],reduction
Cy5.5 [reference compound],pink coloration (Cy5.5) in the retina,[1],no pink coloration was observed in any part of the retina or optic nerve head
same,transport across the cornea / localization,[1],not transported across the cornea
RADARADA [(RADA)2],signs of retinal inflammation compared to control (LPS alone),"[2]; all concentrations (0.1%, 1.0%, 10.0%), 24 hours, FIG. 4",marked reduction
same,density of activated retinal microglial cells compared to controls (LPS alone),"[2]; combination injection with LPS, 24 hours",significantly lower
H2N(EARA)COOH (H-EARA-OH) [SAP S2],signs of retinal inflammation compared to control,"[2]; along with LPS, FIG. 5",marked reduction
RADARADARADARADA,JEB #,[3]; Day 1,11.63
same,TOTAL AREA WEIGHT (total retinal area weight-averaged density; amount of inflammation),[3]; Day 1,74.99
same,TOTAL AREA WEIGHT (total retinal area weight-averaged density; amount of inflammation),"[3]; Day 1, listed as SAP",75.0±26.6
same,JEB #,[3]; Day 3,8.502
same,TOTAL AREA WEIGHT (total retinal area weight-averaged density; amount of inflammation),[3]; Day 3,55.91
same,TOTAL AREA WEIGHT (total retinal area weight-averaged density; amount of inflammation),"[3]; Day 3, listed as SAP",55.9±45.9
same,JEB #,[3]; Day 7,9.158
same,TOTAL AREA WEIGHT (total retinal area weight-averaged density; amount of inflammation),[3]; Day 7,52.66
same,TOTAL AREA WEIGHT (total retinal area weight-averaged density; amount of inflammation),"[3]; Day 7, listed as SAP",52.7±47.7
same,amount of inflammation compared to normal or saline injected controls,[3]; 0.5% SAP + LPS,no significant difference
same,level of inflammation compared to LPS-only control group,[3]; 0.5% SAP + LPS,significantly (P<0.001) lower
same,density of activated retinal microglial cells compared to LPS controls,[3]; SAP + LPS vs LPS-only,significantly lower
same,signs of retinal inflammation,[3]; intraocular SAP along with LPS,marked reduction
H2N(EARA)2CONH2 (H-EARAEARA-NH2) [SAP S5],signs of retinal inflammation compared to control,"[2]; along with LPS, FIG. 5",marked reduction
H2N(RARA)CONH2 (H-RARA-NH2) [SAP S3],LPS induced inflammation,"[2]; along with LPS, FIG. 5",reduced LPS induced inflammation to normal levels
same,signs of retinal inflammation compared to control,"[2]; along with LPS, FIG. 5",marked reduction
Cy5.5(RADA)2COOH ({Cy5.5}-RADARADA-OH) [Cy5.5 conjugated to RADARADA],localization,[1],localize to the retina
Cy5.5(RADA)4CONH2,localization,[1],localize to the retina
same,pink coloration (Cy5.5) in the retina,[1],pink coloration was observed throughout the outer retina
same,transport across the cornea / localization,[1],localize within the retina

# — US20190292223A1, “SAP AND PEPTIDOMIMETICS FOR TREATMENT OF EYE DISEASE” (Arch Biosurgery, Inc., priority 2018, published 2019)
